In ChEMBL document CHEMBL4680270, “Synthesis and biological evaluation of novel pyrazoline derivatives containing indole skeleton as anti-cancer agents targeting topoisomerase II” (Eur J Med Chem, 2020):
Active and inactive are the calls of the source. No cut-off for these calls is given here.

Assays:
MCF7 = assay: Antiproliferative activity against human MCF7 cells assessed as reduction in cell growth incubated for 48 hrs by MTT assay; type: functional, cell-based; details: MCF7, 48 h
HeLa = assay: Antiproliferative activity against human HeLa cells assessed as reduction in cell growth incubated for 48 hrs by MTT assay; type: functional, cell-based
MGC-803 [1] = assay: Antiproliferative activity against human MGC-803 cells assessed as reduction in cell growth incubated for 48 hrs by MTT assay; type: functional, cell-based; details: MGC-803, 48 h
BEL-7404 tumor cell line = assay: Antiproliferative activity against human Bel-7404 tumor cell line assessed as reduction in cell growth incubated for 48 hrs by MTT assay; type: functional, cell-based; details: BEL-7404, 48 h
[2] = Cytotoxicity against […] tumor cell line assessed as reduction in cell viability incubated for 48 hrs by MTT assay; details: L929, 48 h
[3] = target: T1, DNA topoisomerase 1 (Homo sapiens) (UniProt P11387); assay: Inhibition of human topoisomerase 1 assessed as decrease in relaxation of supercoiled pBR322 plasmid DNA at 100 uM using pBR322 plasmid DNA as substrate incubated for 30 mins by agarose gel electrophoresis
T1 sequence (whole entry): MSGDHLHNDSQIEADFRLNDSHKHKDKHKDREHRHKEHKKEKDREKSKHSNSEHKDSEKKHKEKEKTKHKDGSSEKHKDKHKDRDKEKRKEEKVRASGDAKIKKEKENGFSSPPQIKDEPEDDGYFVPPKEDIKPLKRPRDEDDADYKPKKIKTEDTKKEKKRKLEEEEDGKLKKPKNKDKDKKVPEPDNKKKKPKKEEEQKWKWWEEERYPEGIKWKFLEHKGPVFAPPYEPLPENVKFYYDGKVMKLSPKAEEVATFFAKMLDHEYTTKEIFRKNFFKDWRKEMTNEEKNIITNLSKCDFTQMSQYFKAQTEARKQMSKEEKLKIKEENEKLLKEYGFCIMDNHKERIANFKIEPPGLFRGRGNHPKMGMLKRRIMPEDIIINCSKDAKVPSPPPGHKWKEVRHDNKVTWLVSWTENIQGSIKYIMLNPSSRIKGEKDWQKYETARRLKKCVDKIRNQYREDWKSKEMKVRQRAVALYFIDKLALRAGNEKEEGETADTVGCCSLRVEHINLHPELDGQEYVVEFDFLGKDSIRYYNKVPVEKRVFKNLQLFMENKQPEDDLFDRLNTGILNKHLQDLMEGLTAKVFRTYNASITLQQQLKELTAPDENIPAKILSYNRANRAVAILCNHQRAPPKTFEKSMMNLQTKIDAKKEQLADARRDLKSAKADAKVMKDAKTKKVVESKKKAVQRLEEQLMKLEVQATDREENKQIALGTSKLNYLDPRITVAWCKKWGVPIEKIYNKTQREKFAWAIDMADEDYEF

MGC-803 [4] = assay: Inhibition of topoisomerase 2 purified from human MGC-803 cells assessed as decrease in relaxation of supercoiled pBR322 plasmid DNA at 100 uM using pBR322 plasmid DNA as substrate incubated for 30 mins by agarose gel electrophoresis; type: cell-free
MGC-803 [5] = assay: Inhibition of topoisomerase 2 purified from human MGC-803 cells assessed as decrease in relaxation of supercoiled pBR322 plasmid DNA at 20 uM using pBR322 plasmid DNA as substrate incubated for 30 mins by agarose gel electrophoresis; type: cell-free
MGC-803 [6] = assay: Induction of apoptosis in human MGC-803 cells assessed as viable cells at 10 uM incubated for 48 hrs by annexin V-FITC and PI staining based flow cytometry analysis (reference value: 94.47 %); type: functional; details: read-out: Activity
MGC-803 [7] = assay: Induction of cell cycle arrest in human MGC-803 cells assessed as G2/M phase at 10 uM incubated for 48 hrs by PI staining based flow cytometry analysis (reference value: 8.8 %); type: functional
[8] = Drug uptake in human MGC-803 cells at 10 uM incubated for 8 hrs by laser scanning confocal microscope; type: ADME, cell-based; details: mgc-803, 8 h
MGC-803 [9] = assay: Induction of apoptosis in human MGC-803 cells assessed as late apoptotic cells at 20 uM incubated for 48 hrs by annexin V-FITC and PI staining based flow cytometry analysis (reference value: 2.96 %); type: functional
MGC-803 [10] = assay: Induction of apoptosis in human MGC-803 cells assessed as late apoptotic cells at 10 uM incubated for 48 hrs by annexin V-FITC and PI staining based flow cytometry analysis (reference value: 2.96 %); type: functional
Homo sapiens = organism: Homo sapiens; assay: Inhibition of human topoisomerase 2 assessed as EtBr intercalation into plasmid DNA by converting relaxed DNA into supercoiled DNA at 100 to 300 uM incubated for 30 mins by agarose gel electrophoresis method; details: dose 100-300 µM
MGC-803 [11] = assay: Induction of apoptosis in human MGC-803 cells assessed as necrotic cells at 10 uM incubated for 48 hrs by annexin V-FITC and PI staining based flow cytometry analysis (reference value: 0.03 %); type: functional
MGC-803 [12] = assay: Induction of apoptosis in human MGC-803 cells assessed as viable cells at 20 uM incubated for 48 hrs by annexin V-FITC and PI staining based flow cytometry analysis (reference value: 94.47 %); type: functional; details: read-out: Activity
MGC-803 [13] = assay: Induction of apoptosis in human MGC-803 cells assessed as necrotic cells at 20 uM incubated for 48 hrs by annexin V-FITC and PI staining based flow cytometry analysis (reference value: 0.03 %); type: functional
MGC-803 [14] = assay: Induction of apoptosis in human MGC-803 cells assessed as early apoptotic cells at 10 uM incubated for 48 hrs by annexin V-FITC and PI staining based flow cytometry analysis (reference value: 2.54 %); type: functional
MGC-803 [15] = assay: Induction of cell cycle arrest in human MGC-803 cells assessed as S phase at 10 uM incubated for 48 hrs by PI staining based flow cytometry analysis (reference value: 43.6 %); type: functional
MGC-803 [16] = assay: Induction of cell cycle arrest in human MGC-803 cells assessed as G0/G1 phase at 10 uM incubated for 48 hrs by PI staining based flow cytometry analysis (reference value: 47.6 %); type: functional
MGC-803 [17] = assay: Induction of apoptosis in human MGC-803 cells assessed as early apoptotic cells at 20 uM incubated for 48 hrs by annexin V-FITC and PI staining based flow cytometry analysis (reference value: 2.54 %); type: functional
[18] = target: DNA topoisomerase 2-alpha (Homo sapiens) (UniProt P11388); assay: Poison activity at human topoisomerase 2alpha assessed as DNA cleavage by measuring linear DNA formation at 100 to 300 uM using supercoiled pBR322 DNA as substrate incubated for 30 mins by agarose gel electrophoresis method; details: dose 100-300 µM
DNA topoisomerase 2-alpha (Homo sapiens), sequence (P11388 whole entry): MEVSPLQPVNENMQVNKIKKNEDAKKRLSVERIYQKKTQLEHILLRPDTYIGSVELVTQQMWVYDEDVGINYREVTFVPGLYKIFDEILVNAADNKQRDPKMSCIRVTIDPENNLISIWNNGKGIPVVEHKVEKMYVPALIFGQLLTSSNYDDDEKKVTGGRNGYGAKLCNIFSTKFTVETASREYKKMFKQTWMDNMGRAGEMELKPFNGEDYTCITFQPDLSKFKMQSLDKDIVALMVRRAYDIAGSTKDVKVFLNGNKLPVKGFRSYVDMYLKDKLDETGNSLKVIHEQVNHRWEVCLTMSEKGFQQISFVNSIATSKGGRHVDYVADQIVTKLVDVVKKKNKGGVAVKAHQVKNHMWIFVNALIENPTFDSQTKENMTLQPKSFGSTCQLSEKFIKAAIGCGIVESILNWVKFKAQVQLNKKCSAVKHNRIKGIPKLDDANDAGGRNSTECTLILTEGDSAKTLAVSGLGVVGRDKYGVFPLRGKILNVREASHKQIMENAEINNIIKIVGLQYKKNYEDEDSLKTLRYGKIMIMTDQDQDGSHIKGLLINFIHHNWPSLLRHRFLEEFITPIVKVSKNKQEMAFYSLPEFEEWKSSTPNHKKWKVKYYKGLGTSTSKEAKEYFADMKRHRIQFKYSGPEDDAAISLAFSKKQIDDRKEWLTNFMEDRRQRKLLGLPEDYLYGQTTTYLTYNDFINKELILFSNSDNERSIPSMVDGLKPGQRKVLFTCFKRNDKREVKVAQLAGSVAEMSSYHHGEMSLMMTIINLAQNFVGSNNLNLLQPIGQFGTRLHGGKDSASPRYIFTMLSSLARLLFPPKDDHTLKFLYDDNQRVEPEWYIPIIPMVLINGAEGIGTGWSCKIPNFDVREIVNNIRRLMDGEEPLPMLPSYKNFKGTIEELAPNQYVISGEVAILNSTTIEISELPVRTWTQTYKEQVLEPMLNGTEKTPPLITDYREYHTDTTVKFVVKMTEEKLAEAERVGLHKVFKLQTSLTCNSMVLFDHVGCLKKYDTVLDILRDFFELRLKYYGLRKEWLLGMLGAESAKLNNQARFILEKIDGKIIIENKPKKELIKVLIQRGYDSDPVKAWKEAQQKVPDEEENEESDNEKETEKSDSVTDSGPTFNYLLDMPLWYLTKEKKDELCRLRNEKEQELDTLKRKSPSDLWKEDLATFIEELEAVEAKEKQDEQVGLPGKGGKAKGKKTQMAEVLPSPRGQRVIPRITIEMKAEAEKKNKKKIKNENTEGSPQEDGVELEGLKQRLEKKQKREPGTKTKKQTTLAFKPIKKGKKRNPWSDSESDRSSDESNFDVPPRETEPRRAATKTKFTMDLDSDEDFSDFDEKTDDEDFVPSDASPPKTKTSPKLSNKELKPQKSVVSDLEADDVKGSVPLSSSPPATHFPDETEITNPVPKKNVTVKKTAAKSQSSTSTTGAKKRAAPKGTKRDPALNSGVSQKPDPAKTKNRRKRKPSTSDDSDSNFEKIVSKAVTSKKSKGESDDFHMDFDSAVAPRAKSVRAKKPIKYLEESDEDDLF

Row | IC50 (MCF7) | IC50 (HeLa) | IC50 (MGC-803 [1]) | IC50 (BEL-7404 tumor cell line) | inhibition [3] | SMILES | IC50 [2] | inhibition (MGC-803 [4]) | inhibition (MGC-803 [5]) | also measured
1 | 1.45 µM | 5.35 µM | 11.2 µM | 7.76 µM | – | COc1cc([C@@H]2c3cc4c(cc3[C@@H](O[C@@H]3O[C@@H]5CO[C@@H](C)O[C@H]5[C@H](O)[C@H]3O)[C@H]3COC(=O)[C@H]23)OCO4)cc(OC)c1O [ETOPOSIDE] | 80.4 µM | – | – | –
2 | 51.1 µM | 48.7 µM | 33.1 µM | 36.2 µM | inactive | Cn1cc(C2C3CSc4ccc(Cl)cc4C3=NN2c2ccccc2)c2ccccc21 (stereo unspecified) | 262 µM | – | – | –
3 | > 120 µM | > 120 µM | 36.4 µM | > 120 µM | inactive | COc1ccc2c(c1)C1=NN(c3ccccc3)C(c3c[nH]c4ccccc34)C1CS2 (stereo unspecified) | 120 µM | Active | – | –
4 | 47.8 µM | 41.1 µM | 27.8 µM | 61.9 µM | inactive | Cc1cc2c(cc1F)C1=NN(c3ccccc3)C(c3c[nH]c4ccccc34)C1CS2 (stereo unspecified) | 150 µM | Active | – | –
5 | 37.7 µM | 39.7 µM | 35.6 µM | 37.5 µM | inactive | Cc1ccc(C)c2c1SCC1C2=NN(c2ccccc2)C1c1c[nH]c2ccccc12 (stereo unspecified) | 183 µM | Active | Active | –
6 | 37.8 µM | 50 µM | 39.3 µM | 50.2 µM | inactive | Fc1ccc2c(c1)C1=NN(c3ccccc3)C(c3c[nH]c4ccccc34)C1CS2 (stereo unspecified) | 175 µM | Active | Active | –
7 | 25.6 µM | 25 µM | 20.5 µM | 21 µM | inactive | Clc1cc(Cl)c2c(c1)C1=NN(c3ccccc3)C(c3c[nH]c4ccccc34)C1CS2 (stereo unspecified) | 105 µM | Active | Active | viability at 10 µM (MGC-803 [6]): 89.6%; Activity (MGC-803 [7]): 24.9%; Drug uptake [8]: Active; Activity (MGC-803 [9]): 36.06%; Activity (MGC-803 [10]): 4.99%; inhibition (Homo sapiens): inactive; Activity (MGC-803 [11]): 0.5%; viability at 20 µM (MGC-803 [12]): 49.2%; Activity (MGC-803 [13]): 2.54%; Activity (MGC-803 [14]): 4.92%; Activity (MGC-803 [15]): 25.4%; Activity (MGC-803 [16]): 49.7%; Activity (MGC-803 [17]): 12.17%; inhibition [18]: inactive
8 | 72.8 µM | 27.4 µM | 27.1 µM | > 120 µM | inactive | Clc1cc2c(cc1Cl)C1=NN(c3ccccc3)C(c3c[nH]c4ccccc34)C1CS2 (stereo unspecified) | 164 µM | Active | Active | –
9 | 37.1 µM | 35.1 µM | 29.3 µM | 32.1 µM | inactive | Clc1ccc2c(c1)C1=NN(c3ccccc3)C(c3c[nH]c4ccc(Br)cc34)C1CS2 (stereo unspecified) | 154 µM | – | – | –
10 | 35.7 µM | 31.6 µM | 31.1 µM | 36.2 µM | inactive | Fc1cccc2c1SCC1C2=NN(c2ccccc2)C1c1c[nH]c2ccccc12 (stereo unspecified) | 158 µM | Active | Active | –
11 | 68 µM | 36.4 µM | 21.9 µM | > 120 µM | inactive | Cc1ccc2c(c1)C1=NN(c3ccccc3)C(c3c[nH]c4ccccc34)C1CS2 (stereo unspecified) | 158 µM | Active | Active | –
12 | 26.1 µM | 38.2 µM | 15.4 µM | 42.9 µM | inactive | Clc1ccc2c(c1)C1=NN(c3ccccc3)C(c3c[nH]c4ccccc34)C1CS2 (stereo unspecified) | 160 µM | Active | Active | viability at 10 µM (MGC-803 [6]): 69.9%; Activity (MGC-803 [7]): 36.6%; Drug uptake [8]: Active; Activity (MGC-803 [9]): 52.74%; Activity (MGC-803 [10]): 17.02%; Activity (MGC-803 [11]): 0.73%; viability at 20 µM (MGC-803 [12]): 36.9%; Activity (MGC-803 [13]): 2.18%; Activity (MGC-803 [14]): 12.32%; Activity (MGC-803 [15]): 25.3%; Activity (MGC-803 [16]): 38.1%; Activity (MGC-803 [17]): 8.17%
13 | 27 µM | 29.2 µM | 26.5 µM | 23.7 µM | inactive | Cc1cc(C)c2c(c1)C1=NN(c3ccccc3)C(c3c[nH]c4ccccc34)C1CS2 (stereo unspecified) | 134 µM | – | – | –
14 | 38 µM | 37 µM | 28 µM | 57.3 µM | inactive | Cc1cccc2c1SCC1C2=NN(c2ccccc2)C1c1c[nH]c2ccccc12 (stereo unspecified) | 189 µM | Active | – | –
